# Measurements: US20090048346A1, “THERAPEUTIC FORMULATIONS” (Myriad Genetics, Incorporated, priority 2004, published 2009)
# Conditions: 10 mg/mL in Cremophor:EtOH (1:1) diluted 1:9 with D5W, room temperature (approximately 25° C.), 38 days
# Method: 10 ml of this solution was diluted 1:9 by the addition of 90 ml of D5W, and the resulting formulation was mixed by inversion until the solution appeared uniformly clear. The resulting mixture—an injectable formulation—was incubated at room temperature (approximately 25° C.) for 38 days.
compound,measurement,value
O=C(Nc1cc(C(F)(F)F)ccc1Oc1ccc(Cl)c2ccccc12)c1cc(Cl)ccc1O [5-Chloro-N-[2-(4-chloro-naphtalen-1-yloxy)-5-trifluoromethyl-phenyl] -2-hydroxy-benzamide],Stability of compound concentration in the injectable formulation,stable over the entire period
